Experimental data: patent US20080014289A1, “Vehicle and method for treating and preventing acne vulgaris and exfoliating the skin hypohalous acids” (priority 2006, published 2008)
Like-named read-outs stand apart in the source and are kept apart here.

How the values were obtained:
bacteria = details: hot tubs, spas and swimming pools; cited from earlier work
[1] = cited from earlier work
[2] = cited from earlier work; remark: listed apart in the source
cells = details: equimolar basis, compared with HOCl; cited from earlier work
acne vulgaris = assay: Preclinical trial of washing solution, anti-acne activity; format: in vivo
Source text: The concentration of HOCl in the washing solution may be higher than this value depending on where the washing solution is to be applied, e.g. when treating a patient's back for trunk acne, the concentration of HOCl in the washing solution may be as high as 60 ppm for maximum effect in the short term because the thickness of skin on this section of a body is around 3 mm (as compared to a skin thickness of 0.1 mm at the chin section of the face).
Treatment is divided into two stages, treatment period and maintenance period. User should conduct the treatment daily during treatment period until no acne break out; then can switch to maintenance period.
• 1. Wash the face regularly with soap completely removing oil and grime from the surface of the skin. Concentrate on areas of the skin prone to suffering from acne, such as forehead, chin, jawline, around the lips and nose. • 2. Prepare the washing solution as indicated in Examples 1A-1I. • 3. Submerge your face fully into the washing solution, in order to extend time for skin contacting with the solution, moving the head as much as practical while submerged. […]

## OCl [HOCl, hypochlorous acid]
bacteria
  time needed to completely destroy a given concentration of bacteria: 30 s
[1]; pH above 7.5
  FAC existing as active HOCl: < 50%
[1]; water pH 6.5
  % of Chlorine as HOCl: 90%
[1]; water pH 7.0
  % of Chlorine as HOCl: 73%
[1]; water pH 7.2
  % of Chlorine as HOCl: 66%
[1]; water pH 7.5
  share of FAC in the active HOCl form: ~50%
[1]; water pH 7.6
  % of Chlorine as HOCl: 45%
[1]; water pH 8.0
  % of Chlorine as HOCl: 21%
[1]; water pH 8.5
  % of Chlorine as HOCl: 10%

## Hypochlorite ion [OCl^−]
[1]; water pH 6.5
  % chlorine as OCl−: 10%
[1]; water pH 7.0
  % chlorine as OCl−: 27%
[1]; water pH 7.2
  % chlorine as OCl−: 34%
[1]; water pH 7.6
  % chlorine as OCl−: 55%
[1]; water pH 8.0
  % chlorine as OCl−: 79%
[1]; water pH 8.5
  % chlorine as OCl−: 90%

## OBr [OBr^−, hypobromite]
[2]; water pH 6.0
  % bromine as OBr−: 0.0%
[2]; water pH 6.5
  % bromine as OBr−: 0.6%
[2]; water pH 7.0
  % bromine as OBr−: 2%
[2]; water pH 7.5
  % bromine as OBr−: 6.0%
[2]; water pH 8.0
  % bromine as OBr−: 17.0%
[2]; water pH 8.5
  % bromine as OBr−: 43.0%

## OBr [HOBr, hypobromous acid]
cells
  efficiency as a lytic agent, factor relative to HOCl: 10
Acne vulgaris
  anti-acne activity compared with hypochlorous acid: slightly less effective than hypochlorous acid
[2]; water pH 6.0
  % of bromine as HOBr: 100%
[2]; water pH 6.5
  % of bromine as HOBr: 99.4%
[2]; water pH 7.0
  % of bromine as HOBr: 98%
[2]; water pH 7.5
  % of bromine as HOBr: 94.0%
[2]; water pH 8.0
  % of bromine as HOBr: 83.0%
[2]; water pH 8.5
  % of bromine as HOBr: 57.0%
